Assays:
Format in all cases: biochemical
FGFR2 = molecular target: T1, FGFR2 (Homo sapiens, UniProt P21802); experiment: FGFR Enzymatic Assay (FRET peptide phosphorylation), FGFR2; conditions: FGFR2 0.01 nM, ATP 100 μM
T1 construct: purchased Millipore or Invitrogen
Protocol: (§1) The inhibitor potency of the Example compounds was measured in an enzyme assay that measures peptide phosphorylation using FRET measurements to detect product formation. Inhibitors were serially diluted in DMSO and a volume of 0.5 μL was transferred to the wells of a 384-well plate. For FGFR3, a 10 μL volume of FGFR3 enzyme (Millipore) diluted in assay buffer (50 mM HEPES, 10 mM MgCl2, 1 mM EGTA, 0.01% Tween-20, 5 mM DTT, pH 7.5) was added to the plate and pre-incubated for 5-10 minutes. Appropriate controls (enzyme blank and enzyme with no inhibitor) were included on the plate. The assay was initiated by the addition of a 10 μL solution containing biotinylated EQEDEPEGDYFEWLE peptide substrate (SEQ ID NO: 1) and ATP (final concentrations of 500 nM and 140 μM respectively) in assay buffer to the wells. The plate was incubated at 25° C. for 1 hr. The reactions were ended with the addition of 10 μL/well of quench solution (50 mM Tris, 150 mM NaCl, 0.5 mg/mL BSA, pH˜7.8, 30 mM EDTA with Perkin Elmer Lance Detection Reagents at 3.75 nM Eu-antibody PY20 and 180 nM APC-Streptavidin). The plate was allowed to equilibrate for 1 hour before scanning the wells on a PheraStar plate reader (BMG Labtech). The enzymes were purchased from Millipore or Invitrogen.
(§2) FGFR1 and FGFR2 were measured under equivalent conditions with the following changes in enzyme and ATP concentrations: FGFR1, 0.02 nM and 210 μM, respectively and FGFR2, 0.01 nM and 100 μM, respectively.
(§3) GraphPad prism3 was used to analyze the data. The IC50 values were derived by fitting the data to the equation for a sigmoidal dose-response with a variable slope. Y=Bottom+(Top−Bottom)/(1+10^((Log IC50−X)*HillSlope)) where X is the logarithm of concentration and Y is the response.

FGFR3 = molecular target: T2, FGFR3 (Homo sapiens, UniProt P22607); experiment: FGFR Enzymatic Assay (FRET peptide phosphorylation), FGFR3; conditions: ATP 140 μM, 25° C. for 1 hr
T2 construct: purchased Millipore
T2 sequence (P22607 23-806): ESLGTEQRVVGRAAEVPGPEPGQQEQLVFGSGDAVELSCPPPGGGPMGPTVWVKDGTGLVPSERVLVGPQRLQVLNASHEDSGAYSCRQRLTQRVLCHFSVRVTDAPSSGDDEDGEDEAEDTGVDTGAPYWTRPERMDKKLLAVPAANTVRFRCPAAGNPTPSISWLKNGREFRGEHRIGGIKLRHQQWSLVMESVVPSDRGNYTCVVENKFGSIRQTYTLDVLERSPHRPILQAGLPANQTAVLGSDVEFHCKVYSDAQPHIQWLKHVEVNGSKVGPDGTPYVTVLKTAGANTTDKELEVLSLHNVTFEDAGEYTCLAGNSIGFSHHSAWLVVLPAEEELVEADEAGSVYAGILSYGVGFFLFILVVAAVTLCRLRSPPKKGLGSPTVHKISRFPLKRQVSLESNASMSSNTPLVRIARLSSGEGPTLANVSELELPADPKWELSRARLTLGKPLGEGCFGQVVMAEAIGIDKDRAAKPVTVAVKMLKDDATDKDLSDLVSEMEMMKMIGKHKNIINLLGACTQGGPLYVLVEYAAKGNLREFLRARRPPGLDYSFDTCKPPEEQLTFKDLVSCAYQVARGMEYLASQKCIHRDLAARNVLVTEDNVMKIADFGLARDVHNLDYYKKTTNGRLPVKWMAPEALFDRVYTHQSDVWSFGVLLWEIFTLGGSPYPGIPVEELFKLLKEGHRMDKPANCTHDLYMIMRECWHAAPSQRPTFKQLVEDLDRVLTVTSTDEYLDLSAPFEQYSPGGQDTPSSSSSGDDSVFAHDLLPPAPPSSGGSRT
Protocol: as §1, §3

FGFR1 = molecular target: T3, FGFR1 (Homo sapiens, UniProt P11362); experiment: FGFR Enzymatic Assay (FRET peptide phosphorylation), FGFR1; conditions: FGFR1 0.02 nM, ATP 210 μM
T3 construct: purchased Millipore or Invitrogen
T3 sequence (P11362 22-822): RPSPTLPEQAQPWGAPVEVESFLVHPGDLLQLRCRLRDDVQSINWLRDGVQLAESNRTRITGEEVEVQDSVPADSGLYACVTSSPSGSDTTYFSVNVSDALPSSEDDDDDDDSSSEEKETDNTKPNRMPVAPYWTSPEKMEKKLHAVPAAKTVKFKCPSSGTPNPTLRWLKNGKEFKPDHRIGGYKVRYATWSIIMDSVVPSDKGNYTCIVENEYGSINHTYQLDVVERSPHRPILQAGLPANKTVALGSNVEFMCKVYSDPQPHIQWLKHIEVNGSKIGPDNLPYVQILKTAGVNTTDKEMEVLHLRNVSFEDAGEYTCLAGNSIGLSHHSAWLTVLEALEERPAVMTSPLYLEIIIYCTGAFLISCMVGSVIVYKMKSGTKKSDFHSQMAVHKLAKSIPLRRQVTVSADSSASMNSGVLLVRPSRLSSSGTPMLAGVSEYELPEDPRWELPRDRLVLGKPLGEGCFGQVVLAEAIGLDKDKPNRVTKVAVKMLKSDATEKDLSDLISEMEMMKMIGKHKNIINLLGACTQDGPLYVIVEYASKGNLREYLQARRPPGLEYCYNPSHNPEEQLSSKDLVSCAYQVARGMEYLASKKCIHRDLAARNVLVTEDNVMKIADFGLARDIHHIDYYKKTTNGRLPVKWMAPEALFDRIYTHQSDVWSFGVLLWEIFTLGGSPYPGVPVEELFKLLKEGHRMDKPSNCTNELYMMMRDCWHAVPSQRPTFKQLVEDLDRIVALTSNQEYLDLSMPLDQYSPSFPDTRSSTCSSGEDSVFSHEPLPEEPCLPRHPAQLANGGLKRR
Protocol: as §1, §2, §3

Measured: IC50

T1 sequence (P21802 22-821): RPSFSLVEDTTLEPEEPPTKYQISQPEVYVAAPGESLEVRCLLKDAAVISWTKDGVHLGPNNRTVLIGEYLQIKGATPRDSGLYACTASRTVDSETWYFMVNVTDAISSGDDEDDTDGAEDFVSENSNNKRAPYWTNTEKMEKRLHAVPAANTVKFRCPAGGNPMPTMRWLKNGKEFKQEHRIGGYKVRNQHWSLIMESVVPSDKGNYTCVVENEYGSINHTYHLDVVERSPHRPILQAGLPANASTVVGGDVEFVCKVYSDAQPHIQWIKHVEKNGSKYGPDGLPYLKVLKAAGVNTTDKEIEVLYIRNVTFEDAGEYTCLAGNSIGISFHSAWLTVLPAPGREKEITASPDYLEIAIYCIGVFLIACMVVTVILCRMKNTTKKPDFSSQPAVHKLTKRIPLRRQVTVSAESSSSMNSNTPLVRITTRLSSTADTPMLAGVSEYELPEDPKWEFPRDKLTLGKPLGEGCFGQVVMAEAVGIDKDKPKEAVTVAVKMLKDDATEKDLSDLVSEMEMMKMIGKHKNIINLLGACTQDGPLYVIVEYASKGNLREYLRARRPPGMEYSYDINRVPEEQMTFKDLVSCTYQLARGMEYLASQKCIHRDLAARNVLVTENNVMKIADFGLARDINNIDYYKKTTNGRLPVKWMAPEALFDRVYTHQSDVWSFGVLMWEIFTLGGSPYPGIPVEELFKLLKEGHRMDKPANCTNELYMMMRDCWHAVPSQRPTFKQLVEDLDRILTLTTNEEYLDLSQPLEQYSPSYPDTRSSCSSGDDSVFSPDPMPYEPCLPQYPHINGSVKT

COc1cc(OC)c(F)c(-c2ncc3c(-c4ccc5c(c4)CC(C(=O)N(C)C)O5)n[nH]c3n2)c1F (single isomer, unassigned) [Example 4, 5-[6-(2,6-Difluoro-3,5-dimethoxyphenyl)-1H-pyrazolo[3,4-d]pyrimidin-3-yl]-N,N-dimethyl-2,3-dihydro-1-benzofuran-2-carboxamide]
< 100 nM: all assays above

COc1cc(OC)c(F)c(-c2ncc3c(-c4ccc5c(c4)CC(C(=O)N(C)C)O5)n[nH]c3n2)c1F (single isomer, unassigned) [Example 5, 5-[6-(2,6-Difluoro-3,5-dimethoxyphenyl)-1H-pyrazolo[3,4-d]pyrimidin-3-yl]-N,N-dimethyl-2,3-dihydro-1-benzofuran-2-carboxamide]
< 100 nM: all assays above

COc1cc(OC)c(F)c(-c2cc3[nH]nc(-c4ccc5c(c4)CC(C(=O)N(C)C)O5)c3cn2)c1F (single isomer, unassigned) [Example 83, 5-[6-(2,6-Difluoro-3,5-dimethoxyphenyl)-1H-pyrazolo[4,3-c]pyridin-3-yl]-N,N-dimethyl-2,3-dihydro-1-benzofuran-2-carboxamide]
< 100 nM: all assays above

COc1cc(OC)c(F)c(-c2cc3[nH]nc(-c4ccc5c(c4)CC(C(=O)N(C)C)O5)c3cn2)c1F (single isomer, unassigned) [Example 84, 5-[6-(2,6-Difluoro-3,5-dimethoxyphenyl)-1H-pyrazolo[4,3-c]pyridin-3-yl]-N,N-dimethyl-2,3-dihydro-1-benzofuran-2-carboxamide]
< 100 nM: all assays above

COc1cc(OC)c(Cl)c(-c2ncc3c(-c4ccc5c(c4)CC(C(=O)N(C)C)O5)n[nH]c3n2)c1Cl (stereo not drawn) [Example 1, 5-[6-(2,6-Dichloro-3,5-dimethoxyphenyl)-1H-pyrazolo[3,4-d]pyrimidin-3-yl]-N,N-dimethyl-2,3-dihydro-1-benzofuran-2-carboxamide]
< 100 nM: all assays above

COc1cc(OC)c(Cl)c(-c2ncc3c(-c4ccc5c(c4)CCC(C(=O)N(C)C)O5)n[nH]c3n2)c1Cl (stereo not drawn) [Example 2, 6-[6-(2,6-Dichloro-3,5-dimethoxyphenyl)-1H-pyrazolo[3,4-d]pyrimidin-3-yl]-N,N-dimethylchromane-2-carboxamide]
< 100 nM: all assays above

COc1cc(OC)c(F)c(-c2ncc3c(-c4ccc5c(c4)CC(C(=O)N(C)C)O5)n[nH]c3n2)c1F (stereo not drawn) [Example 3, 5-[6-(2,6-Difluoro-3,5-dimethoxyphenyl)-1H-pyrazolo[3,4-d]pyrimidin-3-yl]-N,N-dimethyl-2,3-dihydro-1-benzofuran-2-carboxamide]
< 100 nM: all assays above

COc1cc(OC)c(F)c(-c2ncc3c(-c4ccc5c(c4)CCC(C(=O)N(C)C)O5)n[nH]c3n2)c1F (stereo not drawn) [Example 6, 6-[6-(2,6-Difluoro-3,5-dimethoxyphenyl)-1H-pyrazolo[3,4-d]pyrimidin-3-yl]-N,N-dimethylchromane-2-carboxamide]
< 100 nM: all assays above

COc1cc(OC)c(F)c(-c2ncc3c(-c4ccc5c(c4)CC(C(=O)N4CCN(C)CC4)O5)n[nH]c3n2)c1F (stereo not drawn) [Example 7, 6-(2,6-Difluoro-3,5-dimethoxyphenyl)-3-{2-[(4-methylpiperazin-1-yl)carbonyl]-2,3-dihydro-1-benzofuran-5-yl}-1H-pyrazolo[3,4-d]pyrimidine]
< 100 nM: all assays above

COc1cc(OC)c(Cl)c(-c2ncc3c(-c4ccc5c(c4)CCNC5=O)n[nH]c3n2)c1Cl [Example 8, 6-[6-(2,6-Dichloro-3,5-dimethoxyphenyl)-1H-pyrazolo[3,4-d]pyrimidin-3-yl]-3,4-dihydroisoquinolin-1(2H)-one]
< 100 nM: all assays above

COc1cc(OC)c(Cl)c(-c2ncc3c(-c4ccc5c(c4)CCN(C)C5=O)n[nH]c3n2)c1Cl [Example 9, 6-[6-(2,6-Dichloro-3,5-dimethoxyphenyl)-1H-pyrazolo[3,4-d]pyrimidin-3-yl]-2-methyl-3,4-dihydroisoquinolin-1(2H)-one]
< 100 nM: all assays above

CCN1CCc2cc(-c3n[nH]c4nc(-c5c(Cl)c(OC)cc(OC)c5Cl)ncc34)ccc2C1=O [Example 10, 6-[6-(2,6-Dichloro-3,5-dimethoxyphenyl)-1H-pyrazolo[3,4-d]pyrimidin-3-yl]-2-ethyl-3,4-dihydroisoquinolin-1(2H)-one]
< 100 nM: all assays above

COc1cc(OC)c(Cl)c(-c2ncc3c(-c4ccc5c(c4)CCN(C(C)C)C5=O)n[nH]c3n2)c1Cl [Example 11, 6-[6-(2,6-Dichloro-3,5-dimethoxyphenyl)-1H-pyrazolo[3,4-d]pyrimidin-3-yl]-2-isopropyl-3,4-dihydroisoquinolin-1(2H)-one]
< 100 nM: all assays above

COc1cc(OC)c(F)c(-c2ncc3c(-c4ccc5c(c4)CCNC5=O)n[nH]c3n2)c1F [Example 12, 6-[6-(2,6-Difluoro-3,5-dimethoxyphenyl)-1H-pyrazolo[3,4-d]pyrimidin-3-yl]-3,4-dihydroisoquinolin-1(2H)-one]
< 100 nM: all assays above

COc1cc(OC)c(F)c(-c2ncc3c(-c4ccc5c(c4)CCN(S(C)(=O)=O)C5)n[nH]c3n2)c1F [Example 13, 6-[6-(2,6-Difluoro-3,5-dimethoxyphenyl)-1H-pyrazolo[3,4-d]pyrimidin-3-yl]-2-(methylsulfonyl)-1,2,3,4-tetrahydroisoquinoline]
< 100 nM: all assays above

COc1ccc(C#Cc2n[nH]c3nc(-c4c(F)c(OC)cc(OC)c4F)ncc23)cc1 [Example 14, 6-(2,6-Difluoro-3,5-dimethoxyphenyl)-3-[(4-methoxyphenyl)ethynyl]-1H-pyrazolo[3,4-d]pyrimidine]
< 100 nM: all assays above

COc1cc(OC)c(F)c(-c2ncc3c(-c4ccc5c(c4)CN([C@H]4CC[C@H](O)CC4)C5=O)n[nH]c3n2)c1F [Example 15, 5-[6-(2,6-Difluoro-3,5-dimethoxyphenyl)-1H-pyrazolo[3,4-d]pyrimidin-3-yl]-2-(trans-4-hydroxycyclohexyl)isoindolin-1-one]
< 100 nM: all assays above

COc1cc(OC)c(F)c(-c2ncc3c(-c4ccc5c(c4)CN([C@H]4CC[C@@H](O)CC4)C5=O)n[nH]c3n2)c1F [Example 16, 5-[6-(2,6-Difluoro-3,5-dimethoxyphenyl)-1H-pyrazolo[3,4-d]pyrimidin-3-yl]-2-(cis-4-hydroxycyclohexyl)isoindolin-1-one]
< 100 nM: all assays above

COc1cc(OC)c(F)c(-c2ncc3c(-c4ccc(N5CCN(C)CC5)cc4)n[nH]c3n2)c1F [Example 17, 6-(2,6-Difluoro-3,5-dimethoxyphenyl)-3-[4-(4-methylpiperazin-1-yl)phenyl]-1H-pyrazolo[3,4-d]pyrimidine]
< 100 nM: all assays above

COc1cc(OC)c(F)c(-c2ncc3c(-c4ccc(N5CCN(C)CC5)nc4)n[nH]c3n2)c1F [Example 18, 6-(2,6-Difluoro-3,5-dimethoxyphenyl)-3-[6-(4-methylpiperazin-1-yl)pyridin-3-yl]-1H-pyrazolo[3,4-d]pyrimidine]
< 100 nM: all assays above

— US9266892B2, “Fused pyrazoles as FGFR inhibitors” (Incyte Corporation, priority 2012, dated 2016)
